pIC50: −log10 of the molar value. Where two headings read alike, the source gives them in different places.
Legend:
[1] = molecular target: T1, human serotonin transporters (Homo sapiens, UniProt P31645); assay: Serotonin transporter binding assay ([3H]-citalopram competition, HEK-hSERT cell membranes)
T1 construct: expressed in transfected cells
How it was run: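 Competition binding against 1 nM [3H]-citalopram (1 hr, 25 °C, Tris pH 7.4 with NaCl/KCl) on stably transfected HEK-hSERT cell membranes, bound ligand collected on filters. Fluoxetine (10 μM) defined nonspecific binding; curve midpoint gives IC50, convertible to Ki by Cheng–Prusoff.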

[2] = molecular target: T2, neurokinin-1 (NK-1) receptor (Homo sapiens, UniProt P25103); assay: NK-1 Binding assay ([125I] Substance P competition, U373 cell membranes); conditions: U373 membranes, [125I] Substance P displacement, read-out: NK-1 IC50
T2 construct: a human glioblastoma-astrocytoma cell line that endogenously expresses the neurokinin-1 (NK-1) receptor; endogenous in cells; host or cells: U373 human glioblastoma-astrocytoma cells (membranes)
How it was run: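 Membranes were prepared from U373 human glioblastoma-astrocytoma cells, which express NK-1 endogenously, in 50 mM Tris-HCl pH 7.4 with 3 mM MnCl2, BSA and protease inhibitors. IC50 taken as the midpoint of the specific-binding displacement curve.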

[3] = Table 2, HEK-hSERT membranes, [3H]-citalopram displacement, read-out: SERT IC50
[4] = Table 1, HEK-hSERT membranes, [3H]-citalopram displacement, read-out: SERT IC50

T1 sequence (P31645 whole entry): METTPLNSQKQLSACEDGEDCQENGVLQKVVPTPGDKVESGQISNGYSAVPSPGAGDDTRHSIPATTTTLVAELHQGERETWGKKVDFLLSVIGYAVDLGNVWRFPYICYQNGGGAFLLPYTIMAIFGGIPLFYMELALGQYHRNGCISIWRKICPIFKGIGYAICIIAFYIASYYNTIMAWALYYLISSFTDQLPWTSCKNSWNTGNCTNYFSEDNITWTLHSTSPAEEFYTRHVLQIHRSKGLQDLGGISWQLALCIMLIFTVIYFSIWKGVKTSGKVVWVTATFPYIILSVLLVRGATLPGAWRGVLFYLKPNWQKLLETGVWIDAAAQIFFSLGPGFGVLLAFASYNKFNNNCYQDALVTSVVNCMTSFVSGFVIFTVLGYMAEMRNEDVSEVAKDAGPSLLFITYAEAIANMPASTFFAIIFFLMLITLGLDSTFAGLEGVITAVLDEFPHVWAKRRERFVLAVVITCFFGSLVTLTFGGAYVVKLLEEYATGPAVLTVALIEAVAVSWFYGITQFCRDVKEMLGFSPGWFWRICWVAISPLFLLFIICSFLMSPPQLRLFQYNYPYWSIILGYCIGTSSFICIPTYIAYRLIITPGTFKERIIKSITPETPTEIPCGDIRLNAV
T2 sequence (P25103 whole entry): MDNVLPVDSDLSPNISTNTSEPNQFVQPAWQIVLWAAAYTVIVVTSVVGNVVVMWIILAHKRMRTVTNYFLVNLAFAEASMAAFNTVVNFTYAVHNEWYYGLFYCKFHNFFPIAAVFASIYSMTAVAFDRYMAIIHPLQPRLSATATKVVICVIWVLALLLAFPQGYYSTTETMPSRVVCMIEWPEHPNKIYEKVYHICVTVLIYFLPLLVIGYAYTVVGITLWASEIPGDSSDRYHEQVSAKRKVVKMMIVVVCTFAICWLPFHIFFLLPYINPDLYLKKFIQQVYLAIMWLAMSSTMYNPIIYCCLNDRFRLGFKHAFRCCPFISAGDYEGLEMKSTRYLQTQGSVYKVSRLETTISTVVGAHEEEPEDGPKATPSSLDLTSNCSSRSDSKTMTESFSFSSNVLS

pIC50 [1, 3]	pIC50 ([2]; Table 2)	pIC50 [1, 4]	pIC50 ([2]; Table 1)	SMILES	pIC50 [1]
7.00 to 11.00	6.52 to 7.00			Cc1cccc(-c2cc(COCC3(c4ccccc4)CCNCC3)cc(C(F)(F)F)c2)c1C	
		7.00 to 11.00	6.52 to 7.00	COc1ncc(-c2cc(COCC3(c4ccccc4)CCNCC3)cc(C(F)(F)F)c2)c(OC)n1	
7.00 to 11.00	< 6.52			FC(F)(F)c1cc(COCC2(c3ccccc3)CCNCC2)cc(-c2cc(Cl)ccc2Cl)c1	
		7.00 to 11.00	7.00 to 11.00	FC(F)(F)c1cc(COCC2(c3ccccc3)CCNCC2)cc(-c2ccc(Cl)cc2)c1	
		7.00 to 11.00	7.00 to 11.00	FC(F)(F)c1cc(COCC2(c3ccccc3)CCNCC2)cc(-c2ccco2)c1	
7.00 to 11.00	7.00 to 11.00			O=[N+]([O-])c1ccccc1-c1cc(COCC2(c3ccccc3)CCNCC2)cc(C(F)(F)F)c1	
		6.52 to 7.00	< 6.52	FC(F)(F)c1cc(COCC2(c3ccccc3)CCNCC2)cc(-c2cccc3ccccc23)c1	
		7.00 to 11.00	7.00 to 11.00	Cc1ccc(-c2cc(COCC3(c4ccccc4)CCNCC3)cc(C(F)(F)F)c2)s1	
		7.00 to 11.00	7.00 to 11.00	FC(F)(F)c1cc(COCC2(c3ccccc3)CCNCC2)cc(-c2nccs2)c1	
		7.00 to 11.00	7.00 to 11.00	Nc1cccc(-c2cc(COCC3(c4ccccc4)CCNCC3)cc(C(F)(F)F)c2)c1	
7.00 to 11.00	7.00 to 11.00			COc1ccc(-c2cc(COCC3(c4ccccc4)CCNCC3)cc(C(F)(F)F)c2)c(OC)n1	
		7.00 to 11.00	7.00 to 11.00	Cc1cc(-c2cc(COCC3(c4ccccc4)CCNCC3)cc(C(F)(F)F)c2)ccn1	

The next lines start with the molecule.

SMILES	pIC50 [1, 3]	pIC50 ([2]; Table 2)	pIC50 [1, 4]	pIC50 ([2]; Table 1)	pIC50 [1]
COC(=O)c1ccc(-c2cc(COCC3(c4ccccc4)CCNCC3)cc(C(F)(F)F)c2)cc1	7.00 to 11.00	7.00 to 11.00			
FC(F)(F)c1cc(COCC2(c3ccccc3)CCNCC2)cc(-c2cccc(OCc3ccccc3)c2)c1	7.00 to 11.00	7.00 to 11.00			
FC(F)(F)Oc1ccc(-c2cc(COCC3(c4ccccc4)CCNCC3)cc(C(F)(F)F)c2)cc1			7.00 to 11.00	7.00 to 11.00	
Fc1cc(-c2cc(COCC3(c4ccccc4)CCNCC3)cc(C(F)(F)F)c2)ccc1-c1ccccc1			7.00 to 11.00	< 6.52	
Cn1nnnc1-c1cc(COCC2(c3ccccc3)CCNCC2)cc(C(F)(F)F)c1			7.00 to 11.00	7.00 to 11.00	
Cc1cc(-c2cc(COCC3(c4cccnc4)CCN(C)CC3)cc(C(F)(F)F)c2)ccc1C#N		7.00 to 11.00			7.00 to 11.00
CC(C)(C)c1ccc(-c2cc(COCC3(c4ccccc4)CCNCC3)cc(C(F)(F)F)c2)cc1			< 6.52	< 6.52	
N#Cc1ccc(-c2cc(Cl)cc(COCC3(c4ccccc4)CCNCC3)c2)cc1	7.00 to 11.00	7.00 to 11.00			
CCCCOc1ccc(-c2cc(COCC3(c4ccccc4)CCNCC3)cc(C(F)(F)F)c2)cc1	7.00 to 11.00	7.00 to 11.00			
COC(=O)c1cccc(-c2cc(COCC3(c4ccccc4)CCNCC3)cc(C(F)(F)F)c2)c1	7.00 to 11.00	6.52 to 7.00			
N#Cc1ccc(-c2cc(COCC3(c4ccccc4)CCNCC3)cc(C(F)(F)F)c2)cc1Cl	7.00 to 11.00	7.00 to 11.00			
FC(F)(F)c1cc(COCC2(c3ccccc3)CCNCC2)cc(-c2ncccn2)c1			7.00 to 11.00	6.52 to 7.00	
CN1CCC(COCc2cc(-c3ccc(Cl)cc3)cc(C(F)(F)F)c2)(c2ccccc2)CC1		7.00 to 11.00			7.00 to 11.00
CN1CCC(COCc2cc(-c3ccc(C#N)c(Cl)c3)cc(C(F)(F)F)c2)(c2ccccc2)CC1		7.00 to 11.00			7.00 to 11.00
Cc1nnnn1-c1cc(COCC2(c3ccccc3)CCNCC2)cc(C(F)(F)F)c1			7.00 to 11.00	6.52 to 7.00	
COc1ccc(-c2ccc(C#N)cc2)cc1COCC1(c2ccccc2)CCNCC1			7.00 to 11.00	7.00 to 11.00	
CC(C)Oc1ccc(-c2cc(COCC3(c4ccccc4)CCNCC3)cc(C(F)(F)F)c2)cc1	6.52 to 7.00	6.52 to 7.00			
CN1CCC(COCc2cc(-c3ccc(C#N)cc3)cc(C(F)(F)F)c2)(c2cccc(Br)c2)CC1		7.00 to 11.00			7.00 to 11.00
N#Cc1cc(COCC2(c3ccccc3)CCNCC2)cc(-c2ccc(F)cc2)c1	7.00 to 11.00	7.00 to 11.00			
CC(OCC1(c2ccccc2)CCN(C)CC1)c1cc(-c2ccc(C#N)cc2)cc(C(F)(F)F)c1 (stereo not shown)				7.00 to 11.00	7.00 to 11.00
CC(C)OC(=O)c1cccc(-c2cc(COCC3(c4ccccc4)CCNCC3)cc(C(F)(F)F)c2)c1	6.52 to 7.00	< 6.52			
NC(=O)c1cc(COCC2(c3ccccc3)CCNCC2)cc(-c2ccc(F)cc2)c1	7.00 to 11.00	< 6.52			
COc1ccc(-c2cc(COCC3(c4ccccc4)CCN(C)CC3)cc(C(F)(F)F)c2)cc1C		7.00 to 11.00			7.00 to 11.00

Reference: US20070249607A1, “NK-1 AND SEROTONIN TRANSPORTER INHIBITORS” (Bristol-Myers Squibb Company, priority 2006, published 2007)
